Results as given in paper PMC9501633, “Synthesis, Characterisation and Mechanism of Action of Anticancer 3-Fluoroazetidin-2-ones” (Pharmaceuticals, 2022).
Blank lines part the entries; values can stand above or below the compound they belong to.

Assays:
[1] = system: MCF-7 human breast cancer cells; assay: AlamarBlue cell viability assay; type: cell-based; conditions: for viability at 1 µM / viability at 10 µM / IC50: Homo sapiens, MCF7, 72 h; for viability at 1 µM: MCF-7, 1 μM; for viability at 1 µM / viability at 10 µM: read-out: viable cells remaining; for viability at 10 µM: MCF-7, 10 μM; for IC50: MCF-7, 72 h
Experimental: The antiproliferative potential of the synthesised 3-fluoro β-lactams 26–35 and 3,3-difluoro β-lactams 36–45 was evaluated in MCF-7 human breast cancer cells using the AlamarBlue assay, with CA-4 as reference compound (Figure 3). […] The results for the preliminary in vitro antiproliferative screen for 3-fluoro β-lactam compounds (26–29), which contain different substituents at the para position in the B ring, are presented in Figure 3A.
Cells were seeded at a density of 5 × 10^3 cells/well (MCF-7 and MDA-MB-231) and 1 × 10^4 cells/well (HEK-293T) in 96-well plates (200 μL per well). After 24 h, cells were then treated with medium alone, with vehicle (1% ethanol (v/v)) or with CA-4 or β-lactam compounds at 1 μM and 10 μM concentrations. […] Cell proliferation for MCF-7 cells was analysed with the AlamarBlue assay (Invitrogen Corp.) as previously described by us. After 72 h, AlamarBlue (10% (v/v)) was added to each well, and plates were incubated for 3–5 h at 37 °C in the dark. Fluorescence results were obtained with a 96-well fluorimeter with excitation at 530 nm and emission at 590 nm with results recorded as percentage viability relative to vehicle control (100%). Dose–response curves were obtained and IC50 values (concentration of drug resulting in 50% reduction in cell survival) were calculated using Prism (GraphPad Software, Inc., La Jolla, CA, USA).
Figure 3 Preliminary cell viability data for 3-fluoro and 3,3-difluoro β-lactam compounds. (A) 3-Fluoro β-lactam compounds containing different para-substituent ring B 26–29; 3-fluoro β-lactam compounds containing different meta-substituent ring B 30, 32–35; (B) 3-difluoro β-lactam compounds containing different para-substituent ring B 36–39; 3-difluoro β-lactam compounds containing different meta-substituent ring B 40, 42–45 in MCF-7 breast cancer cells. Cell proliferation of MCF-7 cells was determined with an AlamarBlue assay (seeding density […] for 96-well plates). Compound concentrations of either 10 μM or 1 μM for 72 h were used to treat the cells with control wells containing vehicle ethanol (1% v/v) and CA-4 (10 μM and 1 μM). The mean value for three experiments is shown with the ± S.E.M. for three independent experiments.

SW-480 cells = assay: AlamarBlue cell viability assay; type: cell-based; conditions: SW-480, 10 μM, 72 h
Experimental: Compound # (Treatment Concentration µM) […]
different para-substituent ring B 26-29; 3-fluoro β-lactam compounds containing different meta-substituent ring B 30, 33-35; (B) 3,3-difluoro β-lactam compounds containing different para-substituent ring B 36-39; 3,3-difluoro β-lactam compounds containing different meta-substituent […]
ring B 40, 42-45 in SW-480 cancer cells.
Cell proliferation of MCF-7 cells was determined with an alamarBlue assay (seeding density […]
Compound concentrations of either 10 μM or 1 μM for 72 h were used to treat the cells with control wells containing vehicle ethanol (1%

MCF-7 cells = assay: Immunofluorescence confocal microscopy of the microtubule network; type: cell-based, human; conditions: MCF-7, 16 h; 33 0.1, 0.5 and 1.0 μM; paclitaxel 1.0 μM; CA-4 0.01 μM
Experimental: The tubulin-targeting effect of compound 33 on the microtubule network of MCF-7 cells was further evaluated by immunofluorescence studies to identify the cellular effects that are relevant to its mechanism of action by inhibiting the polymerisation of tubulin. […] Treatment of MCF-7 cells with compound 33 (0.1, 0.5 and 1.0 μM) induced cell rounding and distinct abnormalities of the spindle formation as well as a loss of the structured tubulin that impacts the microtubule network structure in a dose-dependent manner.
Confocal microscopy was used to determine the effects of novel compound 33 and standard drugs on the MCF-7 cytoskeleton according to the protocols we previously described. For the immunofluorescence study, MCF-7 cells were seeded at 1 × 10^5 cells/mL using eight chamber glass slides (BD Biosciences). The cells were treated with vehicle control (1% ethanol (v/v)), CA-4 (0.01 μM), paclitaxel (1 µM) and 33 (0.1 µM, 0.5 µM and 1 µM) for 16 h. The cells were gently washed in PBS, fixed with 4% paraformaldehyde in PBS (20 min) and permeabilised in 0.5% Triton X-100. After further washes in PBS (containing 0.1% Tween (PBST)), cells were blocked with 5% bovine serum albumin which was diluted with PBST. Cells were incubated with mouse monoclonal anti-α-tubulin–FITC antibody (clone DM1A) (Sigma) (1:100) at 20 °C for 2 h and then washed in PBST and incubated with Alexa Fluor 488 dye (1:500) for 1 h at 20 °C. Cells were washed in PBST and mounted in Ultra Cruz Mounting Media (Santa Cruz Biotechnology, Santa Cruz, CA, USA) containing 4,6-diamino-2-phenolindol dihydrochloride (DAPI). The images were captured by Leica SP8 confocal microscopy with Leica Application Suite X software. Experiments were performed on three independent occasions and images were collected on the same day using identical parameters.
Figure 8 Compound 33 acts as depolymeriser of the microtubule network of MCF-7 breast cancer cells. Cells were treated with vehicle control ([…]), CA-4 (0.01 μM), paclitaxel (1 μM) or compound 33 (0.1, 0.5 and 1 μM) for 16 h. […]

[2] = system: purified bovine brain tubulin; assay: Tubulin polymerisation assay (turbidimetric, 340 nm); type: biochemical; conditions: paclitaxel 10 µM; 33 10 and 30 µM
Experimental: Tubulin polymerisation was investigated using a turbidimetric assay which determines the light scattering by microtubules (absorbance at 340 nm) that is proportional to the microtubule polymer concentration.
Tubulin polymerisation was monitored with purified bovine tubulin using the BK006 kit supplied by Cytoskeleton Inc. (Denver, CO, USA), carried out following the manufacturer’s instructions with the standard assay conditions. Purified (>99%) bovine brain tubulin (3 mg/mL) in a buffer containing PIPES (80 mM, pH 6.9), EGTA (0.5 mM), MgCl2 (2 mM), GTP (1 mM) and glycerol (10%) was incubated at 37 °C in the presence of either vehicle (2% (v/v) ddH2O) or paclitaxel (10 µM), CA-4 (10 μM) or 33 (10 and 30 µM). The effect on tubulin assembly was monitored turbidimetrically at 340 nm in a Spectramax 340 PC spectrophotometer (Molecular Devices, Sunnyvale, CA, USA), with the light scattered depending on the concentration of polymerised microtubules formed. The absorbance was measured at 30 s intervals for 60 min.
Figure 7 Effect of β-lactam compound 33 (10 and 30 µM) and paclitaxel (10 µM) on in vitro tubulin polymerisation. Purified bovine tubulin and GTP were mixed in a 96-well plate. Compounds were added and the reaction was started by warming the solution from 4 to 37 °C. Ethanol (1% v/v) was used as a vehicle control. The effect on tubulin assembly was monitored in a Spectramax 340PC spectrophotometer at 340 nm at 30 s intervals for 30 min at 37 °C. […] Each experiment was performed in duplicate.

[3] = Stability in phosphate buffers (HPLC); type: physicochemical
Experimental: (§1) The β-lactam ring is known to undergo hydrolysis/degradation depending on the substituent type on the ring. For example, degradation of monocyclic β-lactam antibiotic aztreonam increased with elevated humidity, temperature and acidic pH buffer. Ezetimibe, a monocyclic β-lactam drug used to reduce blood cholesterol, undergoes degradation and hydrolysis more rapidly in neutral and basic pH conditions than in acidic pH [71]. The stability of representative compounds 33 and 39 was also determined at pH 4, pH 7.4 (plasma) and pH 9 (intestine) by HPLC. […] The electron-withdrawing effect of the 3-fluoro substituent may result in decreasing stability of the β-lactam ring in response to acid hydrolysis.
(§2) The stability study for compounds 33 and 39 was performed using analytical HPLC (Symmetry column (C18, […], 4.6 × 150 mm), dual wavelength absorbance detector (Waters 2487), binary HPLC pump (Waters 1525) and autosampler (Waters 717 plus)) with mobile phase acetonitrile (70%)/water (30%), flow rate 1 mL/min over 15 min and detection at λ 254 nm. Stock solutions of compounds 33 and 39 (1 mg/mL in mobile phase) were used. Dilutions of 0.5 mg/mL, 0.25 mg/mL, 0.125 mg/mL, 0.0625 mg/mL, 0.03125 mg/mL, 0.015625 mg/mL and 0.0078 mg/mL were prepared for the calibration curve. (i) Stability of 33 and 39 in phosphate buffers: The phosphate buffers were prepared in accordance with the British Pharmacopoeia 2020 at pH values 4, 7.4 and 9. Stock solution, 300 µL (1 mg/mL ACN), was added to a vial containing buffer (9.7 mL), mixed and pre-heated to 37 °C. 1 mL of the solution was introduced into an HPLC vial. Samples (10 µL) were injected and analysed at time intervals of t = 0 min, 5 min, 30 min, 60 min and hourly for 24 h. The analysis was performed in triplicate. (ii) Thermal stability: Compounds 33 and 39 (1 mL stock solution) were each placed in a vial for 4 h at 60 °C on a heating block. The sample was then cooled, diluted with acetonitrile and analysed by HPLC. (iii) Photostability study: Compounds 33 and 39 (stock solution, 1 mL) were placed in a vial, exposed to UV light for 4 h and then analysed by HPLC. (iv) Stability in acidic conditions: HCl (0.1 M, 0.2 mL) was added to stock solutions (0.8 mL) of 33 and 39 in a vial. The vial was vortexed and retained at room temperature. A sample was neutralised with NaOH (0.1 M, 0.2 mL) each hour for 4 h and then analysed by HPLC. (v) Stability of 33 and 39 in basic (alkaline) conditions: NaOH (0.1 M, 0.2 mL) was added to stock solution (0.8 mL) in a vial. The vial was vortexed and retained at room temperature. A sample was neutralised with HCl (0.1 M, 0.2 mL) every hour for 4 h then analysed by HPLC. (vi) Stability of 33 and 39 in oxidising conditions: H2O2 (3%, 0.2 mL) was added to the stock solution (0.8 mL). The vial was vortexed to obtain a homogeneous mixture and retained at room temperature, and a sample was analysed by HPLC every hour for 4 h.

[4] = Stability under degradation conditions (HPLC); type: physicochemical
Experimental: as §1, §2

SMILES: CCSc1ccc(C2C(F)C(=O)N2c2cc(OC)c(OC)c(OC)c2)cc1 (stereo not shown) [Compound 29, 4-(4-(Ethylthio)phenyl)-3-fluoro-1-(3,4,5-trimethoxyphenyl)azetidin-2-one]
cell viability ([1]; MCF-7, range over the two concentrations 1 and 10 μM, 72 h): 68–90%
cells remaining (SW-480 cells): 60%

SMILES: CCOc1ccc(C2C(F)C(=O)N2c2cc(OC)c(OC)c(OC)c2)cc1 (stereo not shown) [Compound 27, 4-(4-Ethoxyphenyl)-3-fluoro-1-(3,4,5-trimethoxyphenyl)azetidin-2-one]
viability at 1 µM ([1]; 72 h): > 70%
viability at 10 µM ([1]; 72 h): 46%

SMILES: CC(=O)O[C@H]1C(=O)[C@@]2(C)[C@H]([C@H](OC(=O)c3ccccc3)[C@]3(O)C[C@H](OC(=O)[C@H](O)[C@@H](NC(=O)c4ccccc4)c4ccccc4)C(C)=C1C3(C)C)[C@]1(OC(C)=O)CO[C@@H]1C[C@@H]2O [Paclitaxel, reference compound]
effect on the microtubule network (MCF-7 cells): significant stabilisation of microtubules
effect on tubulin polymerisation [2]: stabilises the tubulin

IC50 [1]: 321 nM
SMILES: COc1ccc(C2N(c3cc(OC)c(OC)c(OC)c3)C(=O)C2(F)F)cc1O (stereo not shown) [Compound 42, 3,3-Difluoro-4-(3-hydroxy-4-methoxyphenyl)-1-(3,4,5-trimethoxyphenyl)azetidin-2-one]
viability at 1 µM ([1]; 72 h): 17%
viability at 10 µM ([1]; 72 h): 37%
cells remaining (SW-480 cells): 56%

remaining at 24 h, 0.03 mg/mL ([3]; phosphate buffer pH 4, 37 °C): 39%
remaining at 24 h, 0.03 mg/mL ([3]; phosphate buffer pH 7.4, 37 °C): 50%
remaining at 24 h, 0.03 mg/mL ([3]; phosphate buffer pH 9, 37 °C): 19%
remaining at 0.03 mg/mL ([3]; phosphate buffer, pH 11 (as printed in Table S7)): 19%
remaining at 4 h, 0.8 mg/mL ([4]; 0.1 M HCl added to stock solution, acidic (0.1 M HCl)): 54%
remaining at 4 h, 0.8 mg/mL ([4]; 0.1 M NaOH added to stock solution, alkaline (0.1M NaOH)): 60%
remaining at 4 h, 0.8 mg/mL ([4]; 3% H2O2 added to stock solution, oxidative (3% H2O2)): 50%
remaining at 4 h, 1 mg/mL ([4]; stock solution in acetonitrile/water under UV light, UV light): 61%
remaining at 4 h, 1 mg/mL ([4]; stock solution in acetonitrile/water, heated, heat (60 °C)): 82%
SMILES: CCSc1ccc(C2N(c3cc(OC)c(OC)c(OC)c3)C(=O)C2(F)F)cc1 (stereo not shown) [Compound 39, 4-(4-(Ethylthio)phenyl)-3,3-difluoro-1-(3,4,5-trimethoxyphenyl)azetidin-2-one]

IC50 [1]: 312 nM
SMILES: COc1ccc(C2C(F)C(=O)N2c2cc(OC)c(OC)c(OC)c2)cc1 (stereo not shown) [Compound 26, 3-Fluoro-4-(4-methoxyphenyl)-1-(3,4,5-trimethoxyphenyl)azetidin-2-one]
viability at 1 µM ([1]; 72 h): > 70%
viability at 10 µM ([1]; 72 h): 40%
cells remaining (SW-480 cells): 58%

SMILES: COc1cc(N2C(=O)C(F)C2c2ccc(SC)cc2)cc(OC)c1OC (stereo not shown) [Compound 28, 3-Fluoro-4-(4-(methylthio)phenyl)-1-(3,4,5-trimethoxyphenyl)azetidin-2-one]
viability at 1 µM ([1]; 72 h): > 70%
viability at 10 µM ([1]; 72 h): 47%
